The structures appear in SMILES notation.

The test system of the first series is Oryza sativa. The series can be described thus: Relieving activity against bensulfuron-methyl induced injury to Oryza sativa (rice) assessed as growth rate at 0.1 uM (Rbv = 46 to 53%). Format: functional.
Settings: not given
Consider `Cc1ccc(NC(=O)N[C@@H](C)c2ccccc2)cc1`, for which the Activity is reported as 72%.

Regarding `C[C@@H](NC(=O)Nc1cccc(F)c1F)c1ccccc1`, the Activity is given as 53%.

Consider `C[C@@H](NC(=O)Nc1c(Cl)cccc1Cl)c1ccccc1`, for which the Activity was found to be 57%.

On to `CC(C)c1ccccc1NC(=O)N[C@@H](C)c1ccccc1`, for which the Activity is 46%.

With `C[C@@H](NC(=O)Nc1ccc(Cl)cc1Cl)c1ccccc1`, the Activity is recorded as 61%.

On to `Cc1cccc(NC(=O)N[C@H](C)c2ccccc2)c1`, for which the Activity is listed as 55%.

With `CCc1ccc(NC(=O)N[C@H](C)c2ccccc2)cc1`, the Activity amounted to 56%.

In the case of `C[C@H](NC(=O)Nc1ccc(Cl)cc1)c1ccccc1`, the Activity was 63%.

Consider `Cc1ccc(NC(=O)N[C@H](C)c2ccccc2)c(F)c1`, for which the Activity is recorded as 57%.

As to `C[C@H](NC(=O)Nc1ccccc1)c1ccccc1`, the Activity is listed as 67%.

The test system of the next series is Oryza sativa. The series can be described thus: Safener indices, ratio of compound effect of Oryza sativa (rice) growth rate to relieving activity against bensulfuron-methyl induced injury to Oryza sativa growth rate at 0.1 uM.
Settings: not given
Consider `Cc1ccc(NC(=O)N[C@@H](C)c2ccccc2)cc1`, for which the Ratio is on record as 45.

Consider `C[C@@H](NC(=O)Nc1cccc(F)c1F)c1ccccc1`, for which the Ratio is 5.

For the molecule `C[C@@H](NC(=O)Nc1c(Cl)cccc1Cl)c1ccccc1`, the Ratio is on record as 12.

As to `CC(C)c1ccccc1NC(=O)N[C@@H](C)c1ccccc1`, the Ratio stood at 1.

On to `C[C@@H](NC(=O)Nc1ccc(Cl)cc1Cl)c1ccccc1`, for which the Ratio is on record as 20.

`Cc1cccc(NC(=O)N[C@H](C)c2ccccc2)c1`: the Ratio came to 10.

As to `CCc1ccc(NC(=O)N[C@H](C)c2ccccc2)cc1`, the Ratio came out at 15.

With `C[C@H](NC(=O)Nc1ccc(Cl)cc1)c1ccccc1`, the Ratio came to 21.

Consider `Cc1ccc(NC(=O)N[C@H](C)c2ccccc2)c(F)c1`, for which the Ratio was found to be 11.

With `C[C@H](NC(=O)Nc1ccccc1)c1ccccc1`, the Ratio is given as 30.

Another series relates to Oryza sativa. Briefly: Relieving activity against bensulfuron-methyl induced injury to Oryza sativa (rice) assessed as growth rate at 10 uM (Rbv = 46 to 53%). Format: functional.
Settings: not given
As for `Cc1ccc(NC(=O)N[C@@H](C)c2ccccc2)cc1`, the Activity was 91%.

Turning to `C[C@@H](NC(=O)Nc1cccc(F)c1F)c1ccccc1`, the Activity was 85%.

As to `C[C@@H](NC(=O)Nc1c(Cl)cccc1Cl)c1ccccc1`, the Activity is reported as 61%.

Regarding `CC(C)c1ccccc1NC(=O)N[C@@H](C)c1ccccc1`, the Activity was determined as 52%.

For `C[C@@H](NC(=O)Nc1ccc(Cl)cc1Cl)c1ccccc1`, the Activity is on record as 75%.

For `Cc1cccc(NC(=O)N[C@H](C)c2ccccc2)c1`, the Activity amounted to 45%.

As for `CCc1ccc(NC(=O)N[C@H](C)c2ccccc2)cc1`, the Activity is listed as 47%.

As to `C[C@H](NC(=O)Nc1ccc(Cl)cc1)c1ccccc1`, the Activity is 88%.

As to `Cc1ccc(NC(=O)N[C@H](C)c2ccccc2)c(F)c1`, the Activity was determined as 89%.

Regarding `C[C@H](NC(=O)Nc1ccccc1)c1ccccc1`, the Activity turned out to be 80%.

A further series deals with Oryza sativa. Briefly: Effect on Oryza sativa (rice) assessed as growth rate at 0.1 uM relative to control. It counts as organism-based. The note with it: in vivo.
Consider `Cc1ccc(NC(=O)N[C@@H](C)c2ccccc2)cc1`, for which the Activity is 100%.

As to `C[C@@H](NC(=O)Nc1cccc(F)c1F)c1ccccc1`, the Activity is given as 100%.

On to `C[C@@H](NC(=O)Nc1c(Cl)cccc1Cl)c1ccccc1`, for which the Activity stood at 100%.

As to `CC(C)c1ccccc1NC(=O)N[C@@H](C)c1ccccc1`, the Activity worked out at 99%.

Regarding `C[C@@H](NC(=O)Nc1ccc(Cl)cc1Cl)c1ccccc1`, the Activity was found to be 101%.

In the case of `Cc1cccc(NC(=O)N[C@H](C)c2ccccc2)c1`, the Activity was determined as 100%.

For `CCc1ccc(NC(=O)N[C@H](C)c2ccccc2)cc1`, the Activity is reported as 95%.

Take `C[C@H](NC(=O)Nc1ccc(Cl)cc1)c1ccccc1`: the Activity was 103%.

In the case of `Cc1ccc(NC(=O)N[C@H](C)c2ccccc2)c(F)c1`, the Activity was determined as 98%.

Take `C[C@H](NC(=O)Nc1ccccc1)c1ccccc1`: the Activity was found to be 101%.

The next series has as its system Oryza sativa. The series can be described thus: Effect on Oryza sativa (rice) assessed as growth rate at 10 uM relative to control. Format: organism-based. The note with it: in vivo.
As for `Cc1ccc(NC(=O)N[C@@H](C)c2ccccc2)cc1`, the Activity is 100%.

For the molecule `C[C@@H](NC(=O)Nc1cccc(F)c1F)c1ccccc1`, the Activity is 90%.

In the case of `C[C@@H](NC(=O)Nc1c(Cl)cccc1Cl)c1ccccc1`, the Activity worked out at 100%.

For the molecule `CC(C)c1ccccc1NC(=O)N[C@@H](C)c1ccccc1`, the Activity is listed as 93%.

As to `C[C@@H](NC(=O)Nc1ccc(Cl)cc1Cl)c1ccccc1`, the Activity is listed as 100%.

On to `Cc1cccc(NC(=O)N[C@H](C)c2ccccc2)c1`, for which the Activity was 47%.

In the case of `CCc1ccc(NC(=O)N[C@H](C)c2ccccc2)cc1`, the Activity came to 44%.

As to `C[C@H](NC(=O)Nc1ccc(Cl)cc1)c1ccccc1`, the Activity was 101%.

As to `Cc1ccc(NC(=O)N[C@H](C)c2ccccc2)c(F)c1`, the Activity is 99%.

With `C[C@H](NC(=O)Nc1ccccc1)c1ccccc1`, the Activity amounted to 90%.

In a further series the test system is Oryza sativa. Briefly: Safener indices, ratio of compound effect of Oryza sativa (rice) growth rate to relieving activity against bensulfuron-methyl induced injury to Oryza sativa growth rate at 1 uM.
Settings: not given
For the molecule `Cc1ccc(NC(=O)N[C@@H](C)c2ccccc2)cc1`, the Ratio stood at 73.

On to `C[C@@H](NC(=O)Nc1cccc(F)c1F)c1ccccc1`, for which the Ratio stood at 31.

Turning to `C[C@@H](NC(=O)Nc1c(Cl)cccc1Cl)c1ccccc1`, the Ratio came out at 19.

As to `CC(C)c1ccccc1NC(=O)N[C@@H](C)c1ccccc1`, the Ratio was 7.

On to `C[C@@H](NC(=O)Nc1ccc(Cl)cc1Cl)c1ccccc1`, for which the Ratio amounted to 29.

Turning to `Cc1cccc(NC(=O)N[C@H](C)c2ccccc2)c1`, the Ratio is reported as 22.

With `CCc1ccc(NC(=O)N[C@H](C)c2ccccc2)cc1`, the Ratio came to 24.

Regarding `C[C@H](NC(=O)Nc1ccc(Cl)cc1)c1ccccc1`, the Ratio is on record as 64.

With `Cc1ccc(NC(=O)N[C@H](C)c2ccccc2)c(F)c1`, the Ratio is listed as 55.

Turning to `C[C@H](NC(=O)Nc1ccccc1)c1ccccc1`, the Ratio worked out at 58.

Tested on in a further series: not listed separately
The series can be described thus: Hydrophobicity, log K of the compound. Format: physicochemical. The note with it: octanol/water.
Turning to `Cc1ccc(NC(=O)N[C@@H](C)c2ccccc2)cc1`, the “log K” value turned out to be 0.367.

Consider `C[C@@H](NC(=O)Nc1cccc(F)c1F)c1ccccc1`, for which the “log K” value was found to be 0.435.

With `C[C@@H](NC(=O)Nc1c(Cl)cccc1Cl)c1ccccc1`, the “log K” value is 0.326.

With `CC(C)c1ccccc1NC(=O)N[C@@H](C)c1ccccc1`, the “log K” value is reported as 0.487.

Turning to `C[C@@H](NC(=O)Nc1ccc(Cl)cc1Cl)c1ccccc1`, the “log K” value was 0.688.

On to `Cc1cccc(NC(=O)N[C@H](C)c2ccccc2)c1`, for which the “log K” value amounted to 0.374.

With `CCc1ccc(NC(=O)N[C@H](C)c2ccccc2)cc1`, the “log K” value came to 0.487.

As to `C[C@H](NC(=O)Nc1ccc(Cl)cc1)c1ccccc1`, the “log K” value is recorded as 0.439.

Consider `Cc1ccc(NC(=O)N[C@H](C)c2ccccc2)c(F)c1`, for which the “log K” value is listed as 0.459.

`C[C@H](NC(=O)Nc1ccccc1)c1ccccc1`: the “log K” value was found to be 0.28.

Another series deals with Oryza sativa. Briefly: Effect on Oryza sativa (rice) assessed as growth rate at 1 uM relative to control. The note with it: in vivo. It counts as organism-based.
As for `Cc1ccc(NC(=O)N[C@@H](C)c2ccccc2)cc1`, the Activity was found to be 99%.

For the molecule `C[C@@H](NC(=O)Nc1cccc(F)c1F)c1ccccc1`, the Activity stood at 99%.

Turning to `C[C@@H](NC(=O)Nc1c(Cl)cccc1Cl)c1ccccc1`, the Activity is recorded as 99%.

For `CC(C)c1ccccc1NC(=O)N[C@@H](C)c1ccccc1`, the Activity is reported as 96%.

For the molecule `C[C@@H](NC(=O)Nc1ccc(Cl)cc1Cl)c1ccccc1`, the Activity turned out to be 99%.

Take `Cc1cccc(NC(=O)N[C@H](C)c2ccccc2)c1`: the Activity turned out to be 98%.

Turning to `CCc1ccc(NC(=O)N[C@H](C)c2ccccc2)cc1`, the Activity was 47%.

With `C[C@H](NC(=O)Nc1ccc(Cl)cc1)c1ccccc1`, the Activity stood at 101%.

Regarding `Cc1ccc(NC(=O)N[C@H](C)c2ccccc2)c(F)c1`, the Activity stood at 99%.

On to `C[C@H](NC(=O)Nc1ccccc1)c1ccccc1`, for which the Activity came out at 98%.

In another series the test system is Oryza sativa. Briefly: Relieving activity against bensulfuron-methyl induced injury to Oryza sativa (rice) assessed as growth rate at 1 uM (Rbv = 46 to 53%). Format: functional.
Settings: not given
Consider `Cc1ccc(NC(=O)N[C@@H](C)c2ccccc2)cc1`, for which the Activity worked out at 86%.

For the molecule `C[C@@H](NC(=O)Nc1cccc(F)c1F)c1ccccc1`, the Activity turned out to be 66%.

Turning to `C[C@@H](NC(=O)Nc1c(Cl)cccc1Cl)c1ccccc1`, the Activity was determined as 61%.

As to `CC(C)c1ccccc1NC(=O)N[C@@H](C)c1ccccc1`, the Activity was determined as 48%.

Regarding `C[C@@H](NC(=O)Nc1ccc(Cl)cc1Cl)c1ccccc1`, the Activity was found to be 65%.

Consider `Cc1cccc(NC(=O)N[C@H](C)c2ccccc2)c1`, for which the Activity was found to be 60%.

For `CCc1ccc(NC(=O)N[C@H](C)c2ccccc2)cc1`, the Activity was 43%.

For `C[C@H](NC(=O)Nc1ccc(Cl)cc1)c1ccccc1`, the Activity was 83%.

Consider `Cc1ccc(NC(=O)N[C@H](C)c2ccccc2)c(F)c1`, for which the Activity was determined as 79%.

Consider `C[C@H](NC(=O)Nc1ccccc1)c1ccccc1`, for which the Activity stood at 80%.

The subject of a further series is Oryza sativa. The series can be described thus: Safener indices, ratio of compound effect of Oryza sativa (rice) growth rate to relieving activity against bensulfuron-methyl induced injury to Oryza sativa growth rate at 10 uM.
Settings: not given
Turning to `Cc1ccc(NC(=O)N[C@@H](C)c2ccccc2)cc1`, the Ratio worked out at 82.

Regarding `C[C@@H](NC(=O)Nc1cccc(F)c1F)c1ccccc1`, the Ratio stood at 73.

Turning to `C[C@@H](NC(=O)Nc1c(Cl)cccc1Cl)c1ccccc1`, the Ratio was 21.

In the case of `CC(C)c1ccccc1NC(=O)N[C@@H](C)c1ccccc1`, the Ratio was 15.

For `C[C@@H](NC(=O)Nc1ccc(Cl)cc1Cl)c1ccccc1`, the Ratio is 47.

As to `Cc1cccc(NC(=O)N[C@H](C)c2ccccc2)c1`, the Ratio is 29.

In the case of `CCc1ccc(NC(=O)N[C@H](C)c2ccccc2)cc1`, the Ratio was found to be 32.

In the case of `C[C@H](NC(=O)Nc1ccc(Cl)cc1)c1ccccc1`, the Ratio is listed as 74.

Take `Cc1ccc(NC(=O)N[C@H](C)c2ccccc2)c(F)c1`: the Ratio was 78.

Take `C[C@H](NC(=O)Nc1ccccc1)c1ccccc1`: the Ratio came to 63.

Values taken from ChEMBL document CHEMBL3045406, “Enantioselective Relieving Activity of α-Methylbenzylphenylureas toward Bensulfuron-methyl Injury to Rice (Oryza sativa)” (Biosci Biotechnol Biochem, 1999).
